Measurements published in patent US12286452B2, “Amphiphilic aminoglycoside connexin hemichannel inhibitors” (Texas Tech University System, priority 2018, dated 2025).
Read-outs that look alike come from different tables or passages of the source.

Key:
Cx43 HCs = biological target: T1, Cx43 HCs (Homo sapiens, UniProt P17302); assay: Cx43-dependent growth complementation assay in E. coli LB2003; format: cell-based; settings: for Cx43/Cx26 Selectivity: IC50 Cx26/IC50 Cx43
T1 construct: expressed in transfected cells
T1 sequence (P17302 whole entry): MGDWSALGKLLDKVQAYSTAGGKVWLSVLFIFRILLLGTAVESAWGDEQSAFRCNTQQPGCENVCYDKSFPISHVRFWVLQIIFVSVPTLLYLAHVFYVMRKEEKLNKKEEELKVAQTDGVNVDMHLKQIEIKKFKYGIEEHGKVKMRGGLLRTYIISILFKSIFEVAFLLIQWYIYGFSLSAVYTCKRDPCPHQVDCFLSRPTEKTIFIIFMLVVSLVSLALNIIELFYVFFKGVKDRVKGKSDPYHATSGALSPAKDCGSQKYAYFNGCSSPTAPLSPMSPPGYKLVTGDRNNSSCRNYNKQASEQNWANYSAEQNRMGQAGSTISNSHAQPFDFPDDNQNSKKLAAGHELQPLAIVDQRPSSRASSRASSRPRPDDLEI

human Cx26 HCs = biological target: T2, human Cx26 HCs (Homo sapiens, UniProt P29033); assay: Cx26-dependent growth complementation assay in E. coli LB2003; format: cell-based
T2 construct: expressed in transfected cells; host or cells: E. coli LB2003 (carrying pREP4), transformed with pQE-Cx26, IPTG-induced
Protocol: These derivatives were prepared by sequential benzylation and methylation followed by reduction of azido groups or hydrogenolysis of the Bn. […] Connexin HC inhibition was conducted using a bacteria-based assay of HC function^39. In this assay, Cx26 HCs are expressed in E. coli LB2003 cells, which lack three major K^+ uptake systems (Kdp, Kup and Trk), and as a result they cannot grow in low-[K^+] media^39-41. However, growth of this E. coli strain in low-[K^+] medium can be rescued by expression of K^+-permeable channels such as connexin HCs^39, 42-43. Under the conditions of the assay (LB2003 cells expressing HCs and grown in low-K^+ medium), inhibition of the HCs reduces or abolishes growth^39, 42-43. This is a simple assay where bacterial growth in multi-well plates can be followed by measuring the absorbance at 600 nm (OD600)^29.
LB2003 cells generously provided by Dr. E. P. Bakker (Osnabruk University, Osnabruk, Germany) were transformed with the plasmid pQE-Cx26 (human Cx26 into pQE60) and pREP4. […] LB2003 cells cannot grow in low-[K^+] media because of insufficient K^+ uptake for growth due to the knockout of three key K^+ transporters (Atrk, Akup, Akdp strain)^2-4. Details and validation of the growth complementation assay have been published recently^2. In brief, competent LB2003 containing the pREP4 plasmid were transformed with pQE-Cx26. These cells were grown overnight in Luria-Bertani medium (BD, Franklin Lakes, NJ, USA) supplemented with 100 mM KCl (to allow growth) and 0.4 mg/mL ampicillin, and then washed four times with NLM (see below), to remove residual K^+ from the Luria-Bertani medium. The washed cells were resuspended in complementation growth medium to an OD600 of 0.2. NLM contained 46 mM Na2HPO4, 23 mM NaH2PO4, 8 mM (NH4)2SO4, 0.4 mM MgSO4, 0.012 mM FeSO4, 1 mM sodium citrate, 44 mM glucose and 0.006 mM thiamine hydrochloride, pH 7.0. KLM had the same composition that NLM except for the equimolar replacement of Na^+ with K^+. For growth complementation we used NLM+4 mM KCl, and Cx26 expression was induced with 0.5 mM IPTG at the time of dilution to OD600=0.2. For the assay, the cells were seeded in 96-well plates and were incubated at 30° C., with shaking at 500 rpm. OD600 was measured after 18-h incubation in a plate reader. The initial OD600=0.2 was subtracted for growth calculations. Data are presented as means±SEM. Statistically significant differences were calculated by the Student t-test for unpaired data. Data were obtained from at least 3 independent experiments, with 3 repeats per experiment.

[1] = 4″,6″-disubstituted AKs, Table 5, read-out: Cx43 IC50
[2] = K46 members, the 20th table, read-out: IC50 (μM) against Cx43
[3] = the 12th table, Hill fit, mean ± SEM, some n = 1, read-out: Cx43 IC50
[4] = 4″,6″-disubstituted AKs, Table 5, read-out: Cx26 IC50
[5] = K46 members, the 20th table, read-out: IC50 (μM) against Cx26
[6] = first Table 2, read-out: IC50, inhibition of Cx26 by synthetic AGs
[7] = K members, the 21st table, read-out: Cx43 % inhibition
[8] = Table 3, read-out: Cx243% inhibition
[9] = Table 6, read-out: Cx43 (% inhibition)

Compound	IC50 (Cx43 HCs; [1]) [µM]	Cx43/Cx26 Selectivity (Cx43 HCs; Table 5)	IC50 (Cx43 HCs; [3]) [µM]	IC50 (human Cx26 HCs; [6]) [µM]	inhibition at 15 µM (Cx43 HCs; [7]) [%]	inhibition at 15 µM (Cx43 HCs; [8]) [%]	inhibition at 50 µM (Cx43 HCs; [7]) [%]	inhibition at 50 µM (Cx43 HCs; [8]) [%]	inhibition at 15 µM (human Cx26 HCs; Table 3) [%]	inhibition at 50 µM (human Cx26 HCs; Table 3) [%]	inhibition at 15 µM (Cx43 HCs; [9]) [%]	inhibition at 50 µM (Cx43 HCs; [9]) [%]	inhibition at 15 µM (human Cx26 HCs; Table 6) [%]	inhibition at 50 µM (human Cx26 HCs; Table 6) [%]	other results
NCC1OC(OC2C(N)CC(N)C(OC3OC(COCc4ccc(Cl)cc4)C(OCc4ccc(Cl)cc4)C(N)C3O)C2O)C(O)C(O)C1O (centres unmarked) [Compound 12, 4″,6″-Di-O-(4-chlorobenzyl) kanamycin]	17.1 ± 1.7	0.15	20.3	2.5 ± 0.6	–	–	–	–	–	–	–	–	–	–	IC50 (Cx43 HCs; [2]): 20.3 µM; Cx43 Imax (maximal inhibition) (Cx43 HCs; the 12th table, Hill fit): 133%; IC50 (human Cx26 HCs; [4]): 2.5 ± 0.6 µM; IC50 (human Cx26 HCs; [5]): 2.5 ± 0.6 µM
NC[C@H]1O[C@H](O[C@H]2[C@H](O)[C@@H](O[C@@H]3O[C@H](COCc4ccc(F)cc4)[C@@H](OCc4ccc(F)cc4)[C@H](N)[C@H]3O)[C@H](N)C[C@@H]2N)[C@H](O)[C@@H](O)[C@@H]1O [Compound 13, 4″,6″-Di-O-(4-flurobenzyl) kanamycin]	26.6 ± 7.8	0.30	26.6 ± 7.8	8.1 ± 0.5	–	–	–	–	–	–	–	–	–	–	IC50 (Cx43 HCs; [2]): 26.6 ± 7.8 µM; Cx43 Imax (maximal inhibition) (Cx43 HCs; the 12th table, Hill fit): 110 ± 33%; IC50 (human Cx26 HCs; [4]): 8.1 ± 0.5 µM; IC50 (human Cx26 HCs; [5]): 8.1 ± 0.5 µM
NCC1OC(OC2C(N)CC(N)C(OC3OC(COCc4ccc5ccccc5c4)C(OCc4ccc5ccccc5c4)C(N)C3O)C2O)C(O)C(O)C1O (centres unmarked) [Compound 14, 4″,6″-Di-O-(2-naphthalenmethyl) kanamycin]	6.2 ± 4.4	1.07	–	4.9 ± 0.2	–	–	–	–	–	–	–	–	–	–	–
Cc1ccc(S(=O)(=O)OC[C@H]2OC(OC3C(N)CC(N)C(O[C@H]4OC(CN)[C@@H](O)C(O)C4O)[C@@H]3O)[C@H](O)C(N)C2O)cc1 (some centres unmarked) [Compound K19]	–	–	–	–	38.1 ± 2.8	38.1 ± 2.8	51 ± 8.8	51 ± 8.8	26.8 ± 1.7	49.2 ± 5.5	–	–	–	–	–
NCC1O[C@H](O[C@@H]2C(N)C[C@@H](N)C(O[C@H]3OC(COc4ccc(-c5nc6ccccc6[nH]5)cc4)[C@@H](O)C(N)C3O)C2O)C(O)C(O)[C@@H]1O (some centres unmarked) [Compound K30]	–	–	8.9	–	8.9	–	89.4	–	–	–	–	–	–	–	–
NCC1O[C@H](OC2C(N)CC(N)C(OC3O[C@H](COc4ccccc4)C(O)C(N)[C@H]3O)[C@H]2O)C(O)C(O)[C@@H]1O (some centres unmarked) [Compound K34]	–	–	–	–	36 ± 3.9	36 ± 3.9	46.7 ± 7.8	46.7 ± 7.8	14.6 ± 4.3	69.4 ± 4.2	36 ± 3.9	46.7 ± 7.8	14.6 ± 4.3	69.4 ± 4.2	–
NCC1O[C@H](OC2C(N)CC(N)C(OC3O[C@H](COc4ccc([N+](=O)[O-])cc4)C(O)C(N)[C@H]3O)[C@H]2O)C(O)C(O)[C@@H]1O (some centres unmarked) [Compound K36]	–	–	–	–	36.5 ± 0.6	36.5 ± 0.6	49.3 ± 2.2	49.3 ± 2.2	35.9 ± 2.9	62.6 ± 9.2	36.5 ± 0.6	49.3 ± 2.2	35.9 ± 2.9	62.6 ± 9.2	–
NCC1O[C@H](OC2C(N)CC(N)C(OC3O[C@H](CNC(=O)c4ccccc4-c4c5ccc(=O)cc-5oc5cc(O)ccc45)C(O)C(N)[C@H]3O)[C@H]2O)C(O)C(O)[C@@H]1O (some centres unmarked) [Compound K40]	–	–	–	–	45.3 ± 2.7	45.3 ± 2.7	55.1 ± 5.8	55.1 ± 5.8	37.1 ± 13.5	81 ± 1.7	–	–	–	–	–
COc1ccc(OC[C@H]2OC(OC3C(N)CC(N)C(O[C@H]4OC(CN)[C@@H](O)C(O)C4O)[C@@H]3O)[C@H](O)C(N)C2O)cc1 (some centres unmarked) [Compound K81]	–	–	–	–	20 ± 7.4	20 ± 7.4	34.8 ± 7.8	34.8 ± 7.8	15.9 ± 4.2	36.5 ± 4.7	20 ± 7.4	34.8 ± 7.8	15.9 ± 4.2	36.5 ± 4.7	–
NC[C@@H]1O[C@H](O[C@H]2[C@@H](O)[C@H](O[C@@H]3[C@@H](O)[C@H](N)C[C@H](N)[C@H]3O[C@H]3O[C@H](CO)[C@@H](O)[C@H](O)[C@H]3N)O[C@@H]2CO)[C@H](N)[C@@H](O)[C@@H]1O [Paromomycin, reference compound]	–	–	–	–	–	–	–	–	–	–	–	–	–	–	Cx43/Cx26 Selectivity (Cx43 HCs; the 16th table): 0.21
